The text below walks through data of patent publication US10485236B2, “Triazole derivatives, intermediates thereof and their use as fungicides” (Bayer CropScience Aktiengesellschaft, priority 2015, dated 2019).

Data set [1] has as its system Leptosphaeria nodorum. Put plainly: Example J: in vivo preventive Leptosphaeria nodorum test (wheat). The settings on record: Parastagonospora nodorum, 192 h, 500 ppm of active ingredient, preventive spray, evaluated 8 days after inoculation, read-out: efficacy. The procedure:
Example J: In Vivo Preventive Leptosphaeria nodorum Test (Wheat) [table] To produce a suitable preparation of active compound, 1 part by weight of active compound or active compound combination is mixed with the stated amounts of solvent and emulsifier, and the concentrate is diluted with water to the desired concentration. To test for preventive activity, young plants are sprayed with the preparation of active compound or active compound combination at the stated rate of application. After the spray coating has been dried, the plants are sprayed with a spore suspension of Leptosphaeria nodorum. The plants remain for 48 hours in an incubation cabinet at approximately 20° C. and a relative atmospheric humidity of approximately 100%. The plants are placed in the greenhouse at a temperature of approximately 25° C. and a relative atmospheric humidity of approximately 80%. The test is evaluated 8 days after the inoculation. 0% means an efficacy which corresponds to that of the untreated control, while an efficacy of 100% means that no disease is observed.

Data set [2] concerns Alternaria solani. Description: Example F: in vivo preventive test on Alternaria test (tomatoes). As to conditions: 72 h, 100 ppm of active ingredient, preventive spray, evaluated 3 days after inoculation, read-out: efficacy. As to the method: Example F: In Vivo Preventive Test on Alternaria Test (Tomatoes) [table] To produce a suitable preparation of active compound, 1 part by weight of active compound is mixed with the stated amounts of solvent and emulsifier, and the concentrate is diluted with water to the desired concentration. To test for preventive activity, young plants are sprayed with the preparation of active compound at the stated rate of application. After the spray coating has dried on, the plants are inoculated with an aqueous spore suspension of Alternaria solani. The plants are then placed in an incubation cabinet at approximately 20° C. and a relative atmospheric humidity of 100%. The test is evaluated 3 days after the inoculation. 0% means an efficacy which corresponds to that of the untreated control while an efficacy of 100% means that no disease is observed.

Data set [3] concerns Puccinia triticina. Put plainly: Example K: in vivo preventive Puccinia triticina test (wheat). As to conditions: 192 h, 500 ppm of active ingredient, preventive spray, evaluated 8 days after inoculation, read-out: efficacy. As to the method:
Example K: In Vivo Preventive Puccinia Triticina Test (Wheat)
To produce a suitable preparation of active compound, 1 part by weight of active compound or active compound combination is mixed with the stated amounts of solvent and emulsifier, and the concentrate is diluted with water to the desired concentration.
To test for preventive activity, young plants are sprayed with the preparation of active compound or active compound combination at the stated rate of application.
After the spray coating has been dried, the plants are sprayed with a spore suspension of Puccinia triticina. The plants remain for 48 hours in an incubation cabinet at approximately 20° C. and a relative atmospheric humidity of approximately 100%.
The plants are placed in the greenhouse at a temperature of approximately 20° C. and a relative atmospheric humidity of approximately 80%.
The test is evaluated 8 days after the inoculation. 0% means an efficacy which corresponds to that of the untreated control, while an efficacy of 100% means that no disease is observed.

Data set [4] in a line: Measurement of LogP values by HPLC on reversed phase columns (EEC directive 79/831 Annex V.A8). Type of data set: physicochemical. The settings on record: reversed phase HPLC column. The essentials:
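Calibrated with straight-chain alkan-2-ones (3–16 carbons) of known LogP, using retention times with linear interpolation between successive alkanones. Where one method gives several LogP values, all are listed, joined by "+". Lambda-max taken from UV spectra (200–400 nm) at chromatographic peak maxima.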

For data set [5], the system named is Blumeria graminis f.sp. hordei. Put plainly: Example I: in vivo preventive Blumeria test (barley). As to conditions: 168 h, 500 ppm of active ingredient, preventive spray, evaluated 7 days after inoculation, read-out: efficacy. As to the method:
Example I: In Vivo Preventive Blumeria Test (Barley) [table] To produce a suitable preparation of active compound, 1 part by weight of active compound or active compound combination is mixed with the stated amounts of solvent and emulsifier, and the concentrate is diluted with water to the desired concentration. To test for preventive activity, young plants are sprayed with the preparation of active compound or active compound combination at the stated rate of application. After the spray coating has been dried, the plants are dusted with spores of Blumeria graminis f.sp. hordei. The plants are placed in the greenhouse at a temperature of approximately 18° C. and a relative atmospheric humidity of approximately 80% to promote the development of mildew pustules. The test is evaluated 7 days after the inoculation. 0% means an efficacy which corresponds to that of the untreated control, while an efficacy of 100% means that no disease is observed.

Data set [6] deals with Botrytis cinerea. Description: Example A: in vivo preventive test on Botrytis cinerea (grey mould), gherkin. As to conditions: gherkin plants, preventive spray, evaluated 4 to 5 days after inoculation, read-out: efficacy. The procedure: Example A: In Vivo Preventive Test on Botrytis cinerea (Grey Mould) [table] The active ingredients are made soluble and homogenized in a mixture of Dimethyl sulfoxide/Acetone//Tween® 80 and then diluted in water to the desired concentration. The young plants of gherkin are treated by spraying the active ingredient prepared as described above. Control plants are treated only with an aqueous solution of Acetone/Dimethyl sulfoxide/Tween® 80. After 24 hours, the plants are contaminated by spraying the leaves with an aqueous suspension of Botrytis cinerea spores. The contaminated gherkin plants are incubated for 4 to 5 days at 17° C. and at 90% relative humidity. The test is evaluated 4 to 5 days after the inoculation. 0% means an efficacy which corresponds to that of the control plants while an efficacy of 100% means that no disease is observed.

Data set [7] relates to Sphaerotheca fuliginea. Put plainly: Example M: in vivo preventive test on Sphaerotheca (cucumbers); comparison of phenoxy-pyridyl compounds vs. known phenoxy-phenyl compounds. The settings on record: Podosphaera fuliginea, 168 h, rate of application 10 ppm, evaluated 7 days after inoculation, read-out: Efficacy in %. As to the method:
Example M: In Vivo Preventive Test on Sphaerotheca (Cucumbers); Comparison of Phenoxy-pyridyl Compounds According to the Invention Vs. Known Phenoxy-phenyl Compounds [table] To produce a suitable preparation of active compound, 1 part by weight of active compound is mixed with the above stated amounts of solvent and emulsifier, and the concentrate is diluted with water to the desired concentration. To test for preventive activity, young plants are sprayed with the preparation of active compound at the stated rate of application. After the spray coating has dried on, the plants are inoculated with an aqueous spore suspension of Sphaerotheca fuliginea. The plants are then placed in a greenhouse at approximately 23° C. and a relative atmospheric humidity of approximately 70%. The test is evaluated 7 days after the inoculation. 0% means an efficacy which corresponds to that of the untreated control, while an efficacy of 100% means that no disease is observed. [table]

Setting [8] is: method [a]: LC-UV, acidic range, 0.1% formic acid in water and acetonitrile as eluent.

On to `CC(O)(Cn1cncn1)c1ccc(Oc2ccc(Cl)cc2)nc1C(F)(F)F` (stereo not shown) [I.01, 2-[6-(4-chlorophenoxy)-2-(trifluoromethyl)-3-pyridyl]-1-(1,2,4-triazol-1-yl)propan-2-ol], for which the pest or weed control at 500 ppm in data set [1], in data set [3] and in data set [5] was 90 to 100% in each case. The pest or weed control at 100 ppm in data set [2] fell in the range of 90 to 100%. The molecule further came in with a chromatographic logP in data set [4] (setting [8]) of 2.88. Further, in data set [6], the pest or weed control fell in the range of 90 to 100%. Also, in data set [7], the pest or weed control at 10 ppm amounted to 100%.

For the molecule `CC(O)(Cn1cncn1)c1cnc(Oc2ccc(Cl)cc2)cc1C(F)(F)F` (stereo not shown) [I.02, 2-[6-(4-chlorophenoxy)-4-(trifluoromethyl)-3-pyridyl]-1-(1,2,4-triazol-1-yl)propan-2-ol], the pest or weed control at 500 ppm in data set [1], in data set [3] and in data set [5] was 90 to 100% in each case. Moreover, the pest or weed control at 100 ppm in data set [2] lay in the range of 90 to 100%. Besides, the chromatographic logP in data set [4] (setting [8]) amounted to 2.9.

For the molecule `OC(Cn1cncn1)c1ccc(Oc2ccc(Cl)cc2)nc1C(F)(F)F` (stereo not shown) [I.03, 1-[6-(4-chlorophenoxy)-2-(trifluoromethyl)-3-pyridyl]-2-(1,2,4-triazol-1-yl)ethanol], the pest or weed control at 500 ppm in data set [1] was 80 to 89%; in data set [3], 90 to 100%. The pest or weed control at 100 ppm in data set [2] fell in the range of 80 to 89%. The chromatographic logP in data set [4] (setting [8]) is 2.7. In data set [6], the pest or weed control fell in the range of 90 to 100%.

Regarding `CC(O)(Cn1cncn1)c1cnc(Oc2ccccc2)cc1Cl` (stereo not shown) [I.05], the values for the pest or weed control at 500 ppm in data set [1], in data set [3] and in data set [5] were 80 to 89%, 90 to 100% and 90 to 100%, respectively. Also, the pest or weed control at 100 ppm in data set [2] lay in the range of 90 to 100%. Further, the chromatographic logP amounted to 2.1 in data set [4] (setting [8]); 2.06 in data set [4] (method [b]: LC-UV, neutral range, 0.001 molar ammonium acetate solution in water and acetonitrile as eluent). In addition, the pest or weed control in data set [6] is 90 to 100%. For the same molecule, the pest or weed control at 10 ppm in data set [7] stood at 71%.

As to `OC(Cn1cncn1)c1ccc(Oc2ccc(Cl)cc2)nc1Cl` (stereo not shown) [I.14], the figures for the pest or weed control at 500 ppm in data set [1], in data set [3] and in data set [5] were 70 to 79%, 90 to 100% and 90 to 100%, respectively. Also, the pest or weed control at 100 ppm in data set [2] lay within 90 to 100%. Further, the chromatographic logP in data set [4] (setting [8]) came to 2.42. Moreover, the pest or weed control in data set [6] fell in the range of 90 to 100%. Further, the pest or weed control at 10 ppm in data set [7] came to 83%.

Regarding `Cc1ccc(Oc2ccc(C(O)Cn3cncn3)c(Cl)n2)cc1Cl` (stereo not shown) [I.16], the pest or weed control at 100 ppm in data set [2] lay within 90 to 100%. In data set [4] (setting [8]), this molecule gave a chromatographic logP of 2.73. Moreover, the pest or weed control in data set [6] lay in the range of 90 to 100%. For the same molecule, the pest or weed control at 10 ppm in data set [7] amounted to 77%.

Take `CC(O)(Cn1cncn1)c1ccc(Oc2ccc(S(F)(F)(F)(F)F)cc2)nc1Cl` (stereo not shown) [I.35]: the pest or weed control at 500 ppm was in the range of 80 to 89% in data set [1], 90 to 100% in data set [3] and 90 to 100% in data set [5]. Further, the pest or weed control at 100 ppm in data set [2] is 90 to 100%. The chromatographic logP in data set [4] (setting [8]) amounted to 3.17. Moreover, the pest or weed control at 10 ppm in data set [7] is 100%.

Turning to `OC(Cn1cncn1)c1cnc(Oc2ccc(S(F)(F)(F)(F)F)cc2)cc1C(F)(F)F` (stereo not shown) [I.36], the pest or weed control at 500 ppm in data set [1], in data set [3] and in data set [5] was 90 to 100% in each case. For the same molecule, in data set [2], the pest or weed control at 100 ppm was in the range of 90 to 100%. In data set [4] (setting [8]), the chromatographic logP amounted to 3.15. Moreover, the pest or weed control at 10 ppm in data set [7] was 100%.

In the case of `CC(O)(Cn1cncn1)c1ccc(Oc2ccc(C(F)F)cc2)nc1Cl` (stereo not shown) [I.39], the values for the pest or weed control at 500 ppm in data set [1], in data set [3] and in data set [5] were 70 to 79%, 90 to 100% and 90 to 100%, respectively. The pest or weed control at 100 ppm in data set [2] was 90 to 100%. The molecule also had a chromatographic logP in data set [4] (setting [8]) of 2.41. Besides, in data set [6], the pest or weed control was in the range of 90 to 100%. The pest or weed control at 10 ppm in data set [7] is 97%.

Turning to `C[C@@](O)(Cn1cncn1)c1cnc(Oc2ccc(Cl)cc2)cc1C(F)(F)F` [I.45], the pest or weed control at 500 ppm in data set [1], in data set [3] and in data set [5] was 90 to 100% throughout. Moreover, the pest or weed control at 100 ppm in data set [2] lay within 90 to 100%. The molecule also gave a chromatographic logP in data set [4] (setting [8]) of 2.84. In data set [6], the pest or weed control fell in the range of 90 to 100%. Besides, in data set [7], the pest or weed control at 10 ppm came to 99%.

Consider `OC(Cn1cncn1)c1cnc(Oc2ccc(C(F)(F)F)cc2)cc1C(F)(F)F` (stereo not shown) [I.47], for which the pest or weed control at 500 ppm in data set [1], in data set [3] and in data set [5] was 90 to 100% in each case. In addition, the pest or weed control at 100 ppm in data set [2] was 90 to 100%. The molecule further registered a chromatographic logP in data set [4] (setting [8]) of 2.84. Further, the pest or weed control in data set [6] fell in the range of 80 to 89%. Also, the pest or weed control at 10 ppm in data set [7] was 100%.

On to `OC(Cn1cncn1)(c1ccc(Oc2ccc(Cl)cc2)nc1C(F)(F)F)C1CC1` (stereo not shown) [I.91, 1-[6-(4-chlorophenoxy)-2-(trifluoromethyl)-3-pyridyl]-1-cyclopropyl-2-(1,2,4-triazol-1-yl)ethanol], for which the pest or weed control at 500 ppm in data set [3] and in data set [5] was 90 to 100% each time. This molecule had a chromatographic logP in data set [4] (setting [8]) of 3.26. In addition, the pest or weed control in data set [6] lay in the range of 90 to 100%.

For the molecule `O=C(Cn1cncn1)c1ccc(Oc2ccc(Cl)cc2)nc1C(F)(F)F` [VII.01, 1-[6-(4-chlorophenoxy)-2-(trifluoromethyl)-3-pyridyl]-2-(1,2,4-triazol-1-yl)ethanone], the pest or weed control at 500 ppm in data set [1], in data set [3] and in data set [5] was 90 to 100% throughout. In data set [2], the pest or weed control at 100 ppm is 80 to 89%. This molecule also showed a chromatographic logP in data set [4] (method [a], compounds of formula (VII), Table 4) of 2.92. The pest or weed control at 10 ppm in data set [7] was 78%.

What is called chromatographic logP is a lipophilicity value derived from retention on a column. A higher chromatographic logP goes with a more lipophilic compound.
